Test results: PubChem BioAssay AID1963869 (Molecular Pharmacology Branch, DTP, NCI, 2024)

System: KRAS patient-derived spheroids with HUVEC/MSC, viability
Assay: Anticancer human tumor 323965-272-R-J2-PDC patient-derived pancreatic carcinoma cell line growth inhibition [KRAS2]
Details: for IC50: curve of first compound; for viability, T/C: stronger effect = lower value
From the text: Multicellular complex tumor spheroid response to RAS pathway inhibitors in combination with a targeted agents in patient-derived cell lines with oncogenic KRAS variants from multiple cancer types
A high-throughput screen of multi-cell type tumor spheroids was designed to identify active combinations of targeted small molecules and KRAS pathway inhibitors. Complex spheroids include a stromal component modeled by human endothelial cells (HUVEC) and fibroblasts modeled by human mesenchymal stem cells (MSCs). The concentration ranges selected for each drug and investigational agent were based upon clinically achievable concentrations if the clinical Cmax of the agent was known.
Compounds. The drugs and investigational agents: BI-3406 (NSC825286), BAY-293 (NSC824723), batoprotafib (TNO155; NSC825523), sotorasib (AMG 510; NSC818433), MRTX1257 (NSC819558), elimusertib (BAY 1895344; NSC800525), molibresib (GSK525762; NSC774829), temuterkib (LY3214996; NSC803410), venetoclax (NSC766270), alisertib (NSC759677), olaparib (NSC753686), talazoparib (NSC767125), erdafitinib (NSC781556), ipatasertib (NSC767898), cabozantinib (NSC761068), nintedanib (NSC756659), abemaciclib (NSC768073), docetaxel (NSC628503), trametinib (NSC758246), and sapanisertib (NSC764658) were obtained from the National Cancer Institute (NCI) Developmental Therapeutics Program Chemical Repository. The FDA-approved anticancer drug set is available from the Developmental Therapeutics Program. […] The stock solutions were prepared in dimethyl sulfoxide (DMSO, Sigma-Aldrich, St. Louis, MO, cat. D2650) at 800-fold the tested concentration and stored at -70 degrees C prior to their use. All drugs and investigational agents were tested over a range starting from a high concentration at or near the clinical Cmax and decreasing in half-log increments. If the clinical Cmax for an agent had not been determined, the highest concentration tested was 10 microM.
Cell Culture. All cells were maintained in an incubator at 37 degrees C and 5% CO2 with 95% humidity. The PDC lines were cultured according to standard operating procedures established by the NCI PDMR (https://pdmr.cancer.gov/sops/default.htm). Briefly, all PDCs were thawed and cultured in Matrigel-coated flasks prepared with a working solution of 1X Ham's F-12 nutrient mix, without supplementation (Invitrogen, Waltham, MA, cat. 11765054), 100 U/mL penicillin-streptomycin (Invitrogen, cat. 15140122), and 2.5% Matrigel (Corning Inc., Corning, NY, cat. 354248) for the first three passages. All PDCs were cultured in complete DMEM/F-12 media containing advanced DMEM/F-12 (Invitrogen, cat. 12634028), 4.9% defined fetal bovine serum, heat inactivated (HyClone Laboratories Inc., Logan, UT, cat. SH30070.03HI), 389 ng/mL hydrocortisone (Sigma-Aldrich, cat. H4001), 9.7 ng/mL human EGF recombinant protein (Invitrogen, cat. PHG0313), 23.4 microg/mL adenine (Sigma-Aldrich, cat. A2786), 97.3 U/mL penicillin-streptomycin (Invitrogen, cat. 15140122), 1.9 mM L-glutamine (Invitrogen, cat. 25030081), and 9.7 microM Y-27632 dihydrochloride (Tocris Bioscience, Bristol, United Kingdom, cat. 1254). The PDCs were cultured in complete DMEM/F12 media without 9.7 microM Y-27632 dihydrochloride for at least two passages prior to the screen. The established cell line HOP-62 was cultured in RPMI 1640 medium, HEPES (Invitrogen, cat. 22400105) with 10% defined fetal bovine serum (HyClone Laboratories Inc., cat. SH30070.03) and 2 mM L-glutamine (Invitrogen, cat. 25030081). The pooled donor HUVEC were cultured in endothelial cell growth medium 2 (PromoCell, Heidelberg, Germany, cat. C-22011) and the hMSC were cultured in mesenchymal stem cell growth medium 2 (PromoCell, cat. C-28009). For all experiments, HUVEC and hMSC were used at passages </=5, while the malignant cell lines were used at passages </=15. […]

[1] = second compound 0.1 µM, first compound 0.000316 µM
[2] = second compound 0.1 µM, first compound 0.001 µM
[3] = second compound 0.1 µM, first compound 0.00316 µM
[4] = second compound 0.1 µM, first compound 0.01 µM
[5] = second compound 0.1 µM, first compound 0.0316 µM
[6] = second compound 0.1 µM, first compound 0.1 µM
[7] = second compound 0.316 µM, first compound 0.000316 µM
[8] = second compound 0.316 µM, first compound 0.001 µM
[9] = second compound 0.316 µM, first compound 0.00316 µM
[10] = second compound 0.316 µM, first compound 0.01 µM
[11] = second compound 0.316 µM, first compound 0.0316 µM
[12] = second compound 0.316 µM, first compound 0.1 µM
[13] = second compound 1 µM, first compound 0.000316 µM
[14] = second compound 1 µM, first compound 0.001 µM
[15] = second compound 1 µM, first compound 0.00316 µM
[16] = second compound 1 µM, first compound 0.01 µM
[17] = second compound 1 µM, first compound 0.0316 µM
[18] = second compound 1 µM, first compound 0.1 µM
[19] = second compound 3.16 µM, first compound 0.000316 µM
[20] = second compound 3.16 µM, first compound 0.001 µM
[21] = second compound 3.16 µM, first compound 0.00316 µM
[22] = second compound 3.16 µM, first compound 0.01 µM
[23] = second compound 3.16 µM, first compound 0.0316 µM
[24] = second compound 3.16 µM, first compound 0.1 µM
[25] = second compound 10 µM, first compound 0.000316 µM
[26] = second compound 10 µM, first compound 0.001 µM
[27] = second compound 10 µM, first compound 0.00316 µM
[28] = second compound 10 µM, first compound 0.01 µM
[29] = second compound 10 µM, first compound 0.0316 µM
[30] = second compound 10 µM, first compound 0.1 µM
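Note: spheroids exposed to agents for 7 days.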
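Throughout, for viability, T/C: 100% = DMSO vehicle control viability.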

CC(C)n1nc(-c2ccc3oc(N)nc3c2)c2c(N)ncnc21 + CNCc1ccccc1-c1csc(C(C)Nc2nc(C)nc3cc(OC)c(OC)cc23)c1
IC50 (second compound 0.1 µM): 2.12 nM
IC50 (second compound 0.316 µM): 2 nM
IC50 (second compound 1 µM): 2.72 nM
IC50 (second compound 3.16 µM): 2.45 nM
IC50 (second compound 10 µM): < 0.316 nM
viability, T/C [1]: 84.4%
viability, T/C [2]: 58.7%
viability, T/C [3]: 47.6%
viability, T/C [4]: 30.1%
viability, T/C [5]: 22.7%
viability, T/C [6]: 17.9%
viability, T/C [7]: 78.2%
viability, T/C [8]: 60.8%
viability, T/C [9]: 43.1%
viability, T/C [10]: 28.2%
viability, T/C [11]: 19.3%
viability, T/C [12]: 16.8%
viability, T/C [13]: 80.6%
viability, T/C [14]: 71.5%
viability, T/C [15]: 44.6%
viability, T/C [16]: 29.8%
viability, T/C [17]: 19.1%
viability, T/C [18]: 15.6%
viability, T/C [19]: 89%
viability, T/C [20]: 76%
viability, T/C [21]: 42.9%
viability, T/C [22]: 16%
viability, T/C [23]: 9.29%
viability, T/C [24]: 9.2%
viability, T/C [25]: 0.23%
viability, T/C [26]: 0.23%
viability, T/C [27]: 0.19%
viability, T/C [28]: 0.16%
viability, T/C [29]: 0.12%
viability, T/C [30]: 0.35%

Cn1ncnc1[C@H]1c2n[nH]c(=O)c3cc(F)cc(c23)N[C@@H]1c1ccc(F)cc1 + CC1OCC2(CCN(c3cnc(Sc4ccnc(N)c4Cl)c(N)n3)CC2)C1N
IC50 (second compound 0.1 µM): > 100 nM
IC50 (second compound 0.316 µM): 35.9 nM
IC50 (second compound 1 µM): < 0.316 nM
IC50 (second compound 3.16 µM): < 0.316 nM
IC50 (second compound 10 µM): < 0.316 nM
viability, T/C [1]: 80.9%
viability, T/C [2]: 82.9%
viability, T/C [3]: 82.9%
viability, T/C [4]: 79.7%
viability, T/C [5]: 76.2%
viability, T/C [6]: 62%
viability, T/C [7]: 57.5%
viability, T/C [8]: 62.5%
viability, T/C [9]: 55.2%
viability, T/C [10]: 53.6%
viability, T/C [11]: 51.2%
viability, T/C [12]: 45%
viability, T/C [13]: 44%
viability, T/C [14]: 47.5%
viability, T/C [15]: 45.7%
viability, T/C [16]: 43.7%
viability, T/C [17]: 42%
viability, T/C [18]: 38%
viability, T/C [19]: 34.4%
viability, T/C [20]: 32%
viability, T/C [21]: 30.1%
viability, T/C [22]: 28.2%
viability, T/C [23]: 24.4%
viability, T/C [24]: 21%
viability, T/C [25]: 29.3%
viability, T/C [26]: 23.2%
viability, T/C [27]: 20.8%
viability, T/C [28]: 20.1%
viability, T/C [29]: 18.7%
viability, T/C [30]: 17.2%
